Like-named read-outs stand apart in the source and are kept apart here.
B1: THERMOLYSIN: thermophilic protease from BACILLUS THERMOPROTEOLYTICUS, published data (protein, UniProt P00800 233-548, looked up)
Thermolysin: ITGTSTVGVGRGVLGDQKNINTTYSTYYYLQDNTRGNGIFTYDAKYRTTLPGSLWADADNQFFASYDAPAVDAHYYAGVTYDYYKNVHNRLSYDGNNAAIRSSVHYSQGYNNAFWNGSQMVYGDGDGQTFIPLSGGIDVVAHELTHAVTDYTAGLIYQNESGAINEAISDIFGTLVEFYANKNPDWEIGEDVYTPGISGDSLRSMSDPAKYGDPDHYSKRYTGTQDNGGVHINSGIINKAAYLISQGGTHYGVSVVGIGRDKLGKIFYRALTQYLTPTSNFSQLRAAAVQSATDLYGSTSQEVASVKQAFDAVGVK

Tests used:
[1] = test system: NADH and succinate oxidases; test: Oxidase system activities (oxygen uptake) with inhibitors; assay type: biochemical; conditions: THERMUS T-351 oxidase systems
Procedure: Oxygen uptake was measured polarographically using a Rank electrode (Rank Brothers, Bottisham, Cambridge, England). The reaction mixture consisted of 0.1 M KH2 PO4 /Na2 HPO4 buffer pH 7.0, a suitable amount of membrane particle protein, 50 μmol of substrate (except in the case of NADH were 5 μmol were used), in a final volume of 2.5 ml.
Buffers were equilibrated at the desired temperature with sparged air for 30 minutes.
Particles were equilibrated in the electrode for 2 minutes prior to measurement of oxygen uptake. Rates were measured over the first minute.

CALDOLYSIN = test: Response of CALDOLYSIN to inhibitors; assay type: biochemical, THERMUS T-351
[2] = 80° C.; published data; cited from earlier work

Molecule | relative effect on NADH oxidase and succinate oxidase [1] | other results
CCCCCCCc1cc(O)c2ccccc2[n+]1[O-] [2-heptyl-4-hydroxyquinoline-N-oxide] | more effective inhibitors of succinate oxidase | 
c1ccc(-c2ccnc3c2ccc2c(-c4ccccc4)ccnc23)cc1 [Bathophenanthroline] | more effective inhibitors of succinate oxidase | 
O=C(O)CN(CCOCCOCCN(CC(=O)O)CC(=O)O)CC(=O)O [EGTA] |  | % Inhibitor of Activity (CALDOLYSIN; inhibitor 1 mM): 18%; % Inhibitor of Activity (CALDOLYSIN; inhibitor 10 mM): 45%
O=C(O)CI [Iodoacetic acid] |  | % Inhibitor of Activity (CALDOLYSIN): 60%
O=S(=O)(F)Cc1ccccc1 [Phenylmethyl Sulfonyl Fluoride] |  | % Inhibitor of Activity (CALDOLYSIN; inhibitor 10 mM): 10%
C=C(C)[C@H]1Cc2c(ccc3c2O[C@@H]2COc4cc(OC)c(OC)cc4[C@@H]2C3=O)O1 [Rotenone] | more effect on the NADH oxidase | 
CCC1(CCC(C)C)C(=O)NC(=O)NC1=O [amytal] | affected NADH and succinate oxidases equally | 
antimycin A | more effective inhibitors of succinate oxidase | 
B1 |  | HALF-LIFE [2]: 1 h

Source: patent US4442214A, “Thermo-stable micro-organism” (Development Finance Corporation of New Zealand, priority 1979, dated 1984)
